In patent US8609718B2, “Pharmaceutical composition used in treatment of hyperproliferative skin conditions and malignant melanomas comprising pachastrissamine as active ingredient” (Catholic University Industry Academy Cooperation Foundation, priority 2009, dated 2013):
“Also recorded” adds a separate entry of the source.

Tests used:
[1] = tested on: malignant melanoma cell line B16F10; test: MTT cell viability analysis (cytotoxicity), B16F10; type: cell-based; details: 24 hours, FIG. 1
Procedure: Pachastrissamine's cytotoxicity on a HaCaT cell line and a malignant melanoma cell line was researched through MTT cell viability analysis.
First, each of a HaCaT cell line (German Cancer Research, obtained from prof. N. Fuseni, Germany), and two kinds of malignant melanoma cell lines, B16F10 (B16) and A375 were inoculated into a DMEM (Dulbecco's Modified Eagle's Medium) culture medium added with 10% FBS (Thermo Fisher Scientific Inc.), 100 unit/ml penicillin, and 100 μg/ml streptomycin, and then cultured in a CO2 incubator (Form a Scientific, Inc.) (37° C., 5%).
The cultured HaCaT, B16F10, and A375 cells were plated onto a 96-well plate at a concentration of 5×10^4 cells/well, and cultured in a CO2 incubator (37° C., 5%) for 24 hours. The cells in respective wells were treated with pachastrissamine and phytosphingosine at various concentrations of 0, 0.9, 1.8, 3.7, 7.5, 10 μg/ml, and cultured in a CO2 incubator (37° C., 5%) for 24 hours. After the culturing, in a state where the culture medium existed, each well was added with 5 mg/ml MTT reagent at a concentration of 20 μl/[…], and cultured in an incubator for 2 hours. After 2 hours, the culture medium was removed, and each well was added with 150 μl of DMSO (dimethyl sulfoxide). Then, a spectrophotometer was used to measure the absorbance at 540 nm, thereby analyzing the cell viability. Herein, the cell viability was represented as a relative value with respect to 100% of cell viability in a control group not treated with pachastrissamine and phytosphingosine.

[2] = tested on: B16F10 cell line; test: Cell counting by hemocytometer, trypan blue exclusion, B16F10; type: cell-based; details: 24 hours
Procedure: (§1) A HaCaT cell line was cultured in the same manner as described in Example 1. The cultured HaCaT cell line was plated onto a 60 mm plate at a concentration of 5×10^4 cells/well, and cultured in a CO2 incubator (37° C., 5%) for 24 hours. The cultured cells in respective plates were treated with pachastrissamine at a concentration of 10 μg/ml, and cultured in a CO2 incubator (37° C., 5%) for 24, 36, and 48 hours, respectively. After the culturing, the cells were washed with PBS, treated with trypsin-EDTA, and completely detached from the plate. Then, a hemocytometer was used to count the cells through trypan blue exclusion.
(§2) HaCaT, B16F10 and A375 cell lines were cultured in the same manner as described in Example 1. The cultured HaCaT cell line was plated onto a 60 mm plate at a concentration of 5×10^4 cells/well, and cultured in a CO2 incubator (37° C., 5%) for 24 hours. The cultured respective cells were divided into 4 groups. […] These groups were cultured in a CO2 incubator (37° C., 5%) for 24 hours, and then the number of cells were measured in the same manner as described in Example 2-2.

[3] = tested on: A375 cell line; test: Cell counting by hemocytometer, trypan blue exclusion, A375; type: cell-based; details: 24 hours
Procedure: as §1, §2

[4] = tested on: ERK; test: Western blotting of ERK activity (pERK) in HaCaT; type: cell-based, human; details: pachastrissamine 10 μg/ml, U0126 20 nM, 30 minutes, FIG. 3C
Procedure: A HaCaT cell line was cultured in the same manner as described in Example 1. […] The last group was a negative control group (−) and was added with nothing.

[5] = tested on: ERK; test: Western blotting of EGF-induced ERK activity in HEK293T; type: cell-based; details: with 100 μg/ml of EGF, FIG. 3D
Procedure: In the same manner, in a sample of HEK293T (Kidney epithelial cell) cell line treated with pachastrissamine and 100 μg/ml of EGF (epidermal growth factor), ERK activity was determined (see FIG. 3D).

[6] = tested on: MEK; test: Western blotting of MEK activity (caMEK or N-Ras/H-Ras over-expression) in HaCaT; type: cell-based, human; details: HaCaT with caMEK or N-Ras/H-Ras over-expression; FIGS. 3E, 3F
Procedure: In the same manner, MEK(caMEK) continuously activated in the HaCaT cell line was over-expressed so as to activate ERK in a lower signaling pathway of MEK. The HaCaT cell line whose ERK was activated by MEK was treated with pachastrissamine and U0126 and PD98059 (ERK inhibitors). Then, western blotting was carried out using anti-pMEK, anti-MEK, anti-pEKR, anti-EKR, and anti-actin antibodies so as to carry out comparative analysis (see FIG. 3E).
Further, in the same manner, two DNAs of N-Ras and H-Ras, in a previous step of MEK/ERK signal transduction, were over-expressed through transfection while a HaCaT cell line was cultured. Then, after treatment with pachastrissamine and phytosphingosine, western blotting was carried out using anti-pMEK, and anti-MEK antibodies so as to carry out comparative analysis of MEK activity (see FIG. 3F).

[7] = tested on: GSK3-beta / beta-catenin; test: Western blotting of pGSK3-beta, GSK3-beta, pCatenin and Catenin in HaCaT; type: cell-based, human; details: 30 minutes, FIG. 5A
Procedure: The pachastrissamine's effect on beta-catenin protein expression was researched. In the same manner as described in Example 1, a HaCaT cell line was cultured.

[8] = tested on: malignant melanoma cell line B16F10; test: Mouse malignant melanoma (B16F10) lung metastasis model; type: in vivo; details: C57BL6 mouse, B16F10 1×10^6 via tail vein; inoculated once per 4 days (three times); lung on 14th day; FIG. 6
Procedure: In a C57BL6 mouse, pachastrissamine's effect on malignant melanoma metastasis inhibition was researched. A mouse (aged 6 weeks) was inoculated with a malignant melanoma cell line B16F10 (1×10^6) through a tail vein. After 24 hours from the inoculation, pachastrissamine was inoculated, and also, in a control group, PBS was inoculated in the same amount. Pachastrissamine was inoculated once per 4 days (three times), and on the 14th day from the inoculation of cells, the mouse was dissected to extract the lung. The extracted lung was immersed in 4% formalin solution for 16 hours or more, and washed for 16 hours or more. After the washing, the extracted lung was photographed, and other tissues were embedded in paraffin to make a block. Then, a tissue slice with a thickness of […] was prepared. The tissue slice was subjected to a deparaffin process for H&E (Hematoxylin & Eosin) staining, and then sequentially reacted with 100%, 90%, 80%, 70%, and 60% alcohol solutions to complete the hydration reaction. The completely hydrated slice was subjected to H&E staining, and then reacted with the alcohol solutions in reverse order of the hydration reaction to perform a dehydration reaction. When the dehydration reaction was completed, the slice was fixed on a slide and observed by a microscope.

[9] = pachastrissamine 10 μg/ml + lithium chloride 300 nM (PA+Li)
[10] = pachastrissamine 10 μg/ml, LiCl 300 nM

CCCCCCCCCCCCCC[C@@H]1OC[C@H](N)[C@@H]1O [pachastrissamine]
cell viability (number of surviving cells) with increasing concentration ([1]; 0, 0.9, 1.8, 3.7, 7.5, 10 μg/ml): the number of surviving cells was reduced | cytotoxicity compared with phytosphingosine [1]: lower cytotoxicity than phytosphingosine | number of cells compared to no treatment ([2]; 10 μg/ml, FIGS. 2C, 2D): the number of cells was decreased | number of cells with lithium chloride as well as pachastrissamine, compared to only pachastrissamine [2, 9]: the number of cells was higher | number of cells compared to no treatment ([3]; 10 μg/ml, FIGS. 2C, 2D): the number of cells was decreased | number of cells with lithium chloride as well as pachastrissamine, compared to only pachastrissamine [3, 9]: the number of cells was higher | ERK activation (phosphorylation of ERK) [4]: almost completely inhibited the phosphorylation of ERK; also recorded: reduction of ERK activation | ERK activity caused by EGF [5]: almost perfectly inhibit the ERK activity caused by EGF | MEK activity (upper signal of ERK) [6]: inhibition effect on MEK | beta-catenin protein degradation ([7]; 10 μg/ml): induced the degradation of beta-catenin protein | phosphorylation of GSK3-beta [7, 10]: phosphorylation of GSK3-beta was inhibited | phosphorylation of beta-catenin [7, 10]: increasing the phosphorylation of beta-catenin | malignant melanoma metastasis to the lung compared to control group [8]: significantly inhibited
